Laboratory results as given in the NIST ThermoML archive (doi:10.1021/je800110r).
± gives the expanded uncertainty stated by the source.

Details: 283.15 K, Liquid, Vibrating tube method

CCCCCCCCCC [decane]
Details | mass density [kg/m3]
7092 kPa | 742.4 ± 2
7106 kPa | 742.5 ± 2
7121 kPa | 742.6 ± 2
7134 kPa | 742.5 ± 2
7192 kPa | 742.7 ± 2
7205 kPa | 742.5 ± 2
7258 kPa | 742.6 ± 2
7275 kPa | 742.6 ± 2
7296 kPa | 742.6 ± 2
7315 kPa | 742.8 ± 2
7327 kPa | 742.7 ± 2
7342 kPa | 742.7 ± 2
7357 kPa | 742.7 ± 2
7374 kPa | 742.7 ± 2
7387 kPa | 742.8 ± 2
7404 kPa | 742.6 ± 2
7420 kPa | 742.9 ± 2
7435 kPa | 742.8 ± 2
7452 kPa | 742.7 ± 2
7466 kPa | 742.7 ± 2
7484 kPa | 742.8 ± 2
7505 kPa | 742.8 ± 2
7518 kPa | 742.8 ± 2
7534 kPa | 742.8 ± 2
7548 kPa | 742.7 ± 2
7567 kPa | 742.9 ± 2
7581 kPa | 742.8 ± 2
7595 kPa | 742.8 ± 2
7611 kPa | 742.9 ± 2
7628 kPa | 742.9 ± 2
7643 kPa | 742.9 ± 2
7658 kPa | 742.9 ± 2
7697 kPa | 743.1 ± 2
7710 kPa | 743 ± 2
7722 kPa | 743 ± 2
7735 kPa | 743 ± 2
7783 kPa | 743 ± 2
7795 kPa | 743 ± 2
7814 kPa | 743.1 ± 2
7830 kPa | 742.9 ± 2
7845 kPa | 743.1 ± 2
7855 kPa | 743 ± 2
7867 kPa | 743.1 ± 2
7879 kPa | 743.1 ± 2
7891 kPa | 743.1 ± 2
7903 kPa | 743.1 ± 2
7915 kPa | 743 ± 2
7926 kPa | 743.1 ± 2
7942 kPa | 743.2 ± 2
7957 kPa | 743.2 ± 2
7975 kPa | 743.1 ± 2
7991 kPa | 743 ± 2
8004 kPa | 743.1 ± 2
8018 kPa | 743.1 ± 2
8033 kPa | 743.2 ± 2
8045 kPa | 743.2 ± 2
8060 kPa | 743.2 ± 2
8078 kPa | 743.1 ± 2
8091 kPa | 743.2 ± 2
8112 kPa | 743.4 ± 2
8127 kPa | 743.2 ± 2
8143 kPa | 743.3 ± 2
8159 kPa | 743.2 ± 2
8171 kPa | 743.4 ± 2
8318 kPa | 743.4 ± 2
8332 kPa | 743.4 ± 2
8347 kPa | 743.4 ± 2
8361 kPa | 743.3 ± 2
8376 kPa | 743.4 ± 2
8392 kPa | 743.5 ± 2
8412 kPa | 743.4 ± 2
8430 kPa | 743.4 ± 2
8446 kPa | 743.4 ± 2
8462 kPa | 743.4 ± 2
8478 kPa | 743.5 ± 2
8497 kPa | 743.6 ± 2
8513 kPa | 743.5 ± 2
8529 kPa | 743.6 ± 2
8546 kPa | 743.5 ± 2
8563 kPa | 743.6 ± 2
8580 kPa | 743.5 ± 2
8596 kPa | 743.5 ± 2
8612 kPa | 743.6 ± 2
8631 kPa | 743.7 ± 2
8648 kPa | 743.7 ± 2
8660 kPa | 743.6 ± 2
8677 kPa | 743.6 ± 2
8695 kPa | 743.6 ± 2
8706 kPa | 743.7 ± 2
8720 kPa | 743.7 ± 2
8735 kPa | 743.8 ± 2
8747 kPa | 743.7 ± 2
8762 kPa | 743.7 ± 2
8774 kPa | 743.8 ± 2
8790 kPa | 743.7 ± 2
8804 kPa | 743.7 ± 2
8818 kPa | 743.6 ± 2
8832 kPa | 743.9 ± 2
8862 kPa | 743.6 ± 2
8890 kPa | 743.7 ± 2
9095 kPa | 743.9 ± 2
9109 kPa | 743.9 ± 2
9124 kPa | 744 ± 2
9134 kPa | 743.9 ± 2
9147 kPa | 743.8 ± 2
9162 kPa | 744 ± 2
9174 kPa | 744 ± 2
9189 kPa | 743.9 ± 2
9203 kPa | 744.1 ± 2
9220 kPa | 744 ± 2
9233 kPa | 744.1 ± 2
9250 kPa | 744.1 ± 2
9261 kPa | 744 ± 2
9274 kPa | 744.1 ± 2
9287 kPa | 744 ± 2
9304 kPa | 744 ± 2
9315 kPa | 744 ± 2
9326 kPa | 744.1 ± 2
9337 kPa | 744.2 ± 2
9354 kPa | 744.1 ± 2
9373 kPa | 744.2 ± 2
9384 kPa | 744.1 ± 2
9396 kPa | 744.1 ± 2
9406 kPa | 744.2 ± 2
9419 kPa | 744.2 ± 2
9429 kPa | 744.2 ± 2
9442 kPa | 744 ± 2
9452 kPa | 744.2 ± 2
9464 kPa | 744.2 ± 2
9476 kPa | 744.2 ± 2
9488 kPa | 744.1 ± 2
9499 kPa | 744.1 ± 2
9517 kPa | 744.3 ± 2
9532 kPa | 744.2 ± 2
9543 kPa | 744.3 ± 2
9556 kPa | 744.2 ± 2
